Reference: patent US20240228491A1, “METHIONINE ADENOSYLTRANSFERASE INHIBITOR, PREPARATION METHOD THEREFOR AND APPLICATION THEREOF” (SCINNOHUB PHARMACEUTICAL CO., LTD., priority 2021, published 2024)

Assays:
HCT116 MTAP-/- cells = experiment: Activity test of HCT116 MTAP gene homozygous deletion cells (CellTiter-Glo); type: cell-based; conditions: Homo sapiens, HCT-116, 120 h incubation, read-out: HCT116 MTAP-/- Cell IC50
Description: On day 1, cell seeding: after digestion of the cells with trypsin, the cells were resuspended to the desired density with the complete medium (RPMI-1640 supplemented with 10% FBS; the brand of FBS is EXCELL, Cat. No. FND500; the brand of RPMI-1640 is ATCC, Cat. No. 30-2001), mixed evenly, and added into the 96-well plate at 100 μL/well with a cell density of 1000-3000 cells per well. The plate was put back to the incubator for the adherent growth of cells. On day 2, the addition of the compounds to be tested: before the addition of the compounds, the cells were starved with serum-free medium for 4 h, then the complete medium containing the corresponding concentration of compounds was added thereto, and the cells were incubated at 37° C., 5% CO2 for 120 h. On day 7, the cell culture plates were taken out from incubator and equilibrated to room temperature. 50 μL of CellTiter-Glo (Promega Company, Cat. No. G7571) reagent was added per well, and the cells were fully lysed by shaking at room temperature for 2 min, and then incubated for another 60 min to detect the fluorescence intensity. Calculation formula:
(§1) % Inhibition=100−(signal of the well with the compound to be tested−signal of the well with only medium and free of cells)/(signal of the well with cells but without addition of the compound−signal of the well with only medium and free of cells)×100.
The fitting dose-effect curve of the analysis software GraphPad Prism 5 was used to give IC50 values of the individual compounds against cellular activity.

MAT2a = MAT2a (Homo sapiens (Human), UniProt P31153); experiment: MAT2a enzymatic activity test (colorimetric assay); type: biochemical; conditions: OD620, 150 min reaction, read-out: IC50 against MAT2a
Sequence of MAT2a (P31153 whole entry): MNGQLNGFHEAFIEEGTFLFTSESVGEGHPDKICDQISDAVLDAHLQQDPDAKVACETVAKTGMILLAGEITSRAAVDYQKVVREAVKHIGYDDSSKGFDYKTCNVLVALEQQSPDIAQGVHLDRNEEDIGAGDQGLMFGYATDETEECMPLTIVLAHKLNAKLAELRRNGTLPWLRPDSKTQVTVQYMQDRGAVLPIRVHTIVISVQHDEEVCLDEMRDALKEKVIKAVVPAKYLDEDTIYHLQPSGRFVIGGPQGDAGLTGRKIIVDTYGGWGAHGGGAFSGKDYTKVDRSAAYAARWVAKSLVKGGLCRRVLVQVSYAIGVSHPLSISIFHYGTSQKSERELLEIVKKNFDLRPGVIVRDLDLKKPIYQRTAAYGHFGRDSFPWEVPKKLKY
Description: The Colorimetric assay method was used to detect the IC50 value of the tested compounds on MAT2a.
The specific steps were as follows: The compounds having the test starling concentration of 1 μM or 10 μM were diluted into 10 concentration points in a 3-fold gradient. 250 nL of the solutions of the compounds to be tested with 10 different concentrations were taken and added into a 384 well plate for later use. 20 μg/mL of MAT2a enzyme solution was prepared with Assay buffer (50 mM Tris, 50 mM KCl, 10 mM MgCl2, 0.05% polyoxyethylene lauryl ether, pH 8.0). 15 μL of the MAT2a enzyme solution at 20 μg/mL was add into the wells of the compounds to be tested at different concentrations; and 15 μL of Assay buffer was added into the negative control well. An incubation was carried out for 15 minutes after shaking for mixing well. A mixed substrate solution (comprising 400 μM ATP and 600 μM L-Methionine) was prepared with Assay buffer. 10 μL of the mixed substrate solution was added to the positive control well, the compound to be tested well, and the negative control well, respectively, and the reaction began, for a reaction time of 150 min. Then, 50 μL of the reaction stop solution (BIOMOL Green™ Reagent Enzo lifesciences, Cargo No. BML-AK111-1000) was added to stop the reaction, followed by being centrifuged at 1000 rpm for 60 s and then being incubated for 15 min. OD620 was read and data were processed.
By using the log value of the concentration as the X-axis and the inhibition % as the Y-axis, the IC50 value of each compound against enzyme activity was obtained through employing the log(inhibitor) vs. response-Variable slope fitting dose-effect curve of the analysis software GraphPad Prism 5.

KP-4 cells = experiment: Inhibitory activity test of KP-4 cells; type: cell-based; conditions: Homo sapiens, 144 h incubation, read-out: KP-4 cell inhibitory activity IC50
Description: On day 1, cell seeding: after digestion of the cells with trypsin, the cells were resuspended to 1*10^4/mL with RPMI1640 complete medium (HyClone Company, Cat. No. SH30809.01) supplemented with 10% FBS (Gibco, 10099141C), mixed evenly, and added into the 96-well plate at 100 μL/well. The plate was put back to the incubator for the adherent growth of cells. On day 2, the addition of the compounds to be tested: 100 μL of the complete medium containing the compounds (the concentration of the compound in the medium was formulated as follows: 3-fold gradient dilution from 60 μM, 10 concentration gradients in total) was added, incubated for 144 hours at 37° C., 5% CO2. On day 8, the cell culture plates were taken out from incubator and equilibrated to room temperature, excess medium was pipetted from the wells so that 50 μL of supernatant was retained, and 50 μL of CellCounting-Lite 2.0 (Nanjing Vazyme Biotech Co., Ltd., Cat. No. DD1101) reagent was added per well, and the cells were fully lysed by shaking at room temperature for 10 min, and incubated for 5 min to detect the fluorescence intensity.
as §1
(§2) The log value of concentration was used as the X-axis and % Inhibition was used as the Y-axis, so as to fit the dose-effect curve and calculate the IC50 value using nonlinear regression (dose response−variable slope) in the analysis software GraphPad Prism 8.

DOHH-2 cells = experiment: Inhibitory activity test of DOHH-2 cells; type: cell-based; conditions: Homo sapiens, 120 h incubation, CellTiter-Glo, read-out: DOHH-2 cell inhibitory activity IC50
Description: On day 1, cell seeding: cells were resuspended to the desired density with DMEM complete medium (Gibico, Cat. No. 10569010) supplemented with 10% FBS (Gibco, 10099141C), mixed evenly, and added into the 384-well plate at 30 μL/well with a cell density of 800/well. The compounds to be tested were added as follows: 30 nL of DMSO solution containing the compound (the concentration of the compound in which was formulated as: 3-fold gradient dilution from 10 mM, 10 concentration points in total) was added, incubated for 120 h at 37° C., 5% CO2. On day 6, the cells treated with compounds were removed and equilibrated to room temperature, 30 μL of CellTiter-Glo (Promega company, Cat. No. G7573) reagent was added per well, and the cells were fully lysed by shaking at room temperature, and then incubated in dark at 37° C., 5% CO2 for 30 min, to detect the fluorescence intensity.
% Inhibition=100−(signal of the well with the compound to be tested−signal of the well with only medium and free of cells)/(signal of the well with cells but without the addition of the compound−signal of the well with only medium and free of cells)×100.
as §2

Row | IC50 (HCT116 MTAP-/- cells) [nM] | IC50 (MAT2a) [nM] | IC50 (KP-4 cells) [nM] | Compound | IC50 (DOHH-2 cells) [nM]
1 | 6.37 | 14.8 | 190 | Nc1c(-c2ccc3ncccc3c2)c(=O)n(-c2ccc(Cl)cc2)c2nc(C(F)(F)F)ccc12 [Example 45] | 
2 | 13.4 | 15.4 |  | Cc1ccc(-n2c(=O)c(-c3ccco3)c(N)c3ccc(C(F)(F)F)nc32)cc1 [Example 31] | 430
3 | 18.6 | 13.4 | 490 | Cn1cc(-c2c(N)c3ccc(C(F)(F)F)nc3n(-c3ccc(Cl)cc3)c2=O)ccc1=O [Example 44] | 495
4 |  | 16.6 |  | Nc1c(-c2ccc3nonc3c2)c(=O)n(-c2ccc(Cl)cc2)c2nc(C(F)(F)F)ccc12 [Example 69] | 663
5 | 21.2 | 14.4 | 240 | Nc1c(-c2ccc3c(c2)OCCO3)c(=O)n(-c2ccc(Cl)cc2)c2nc(C(F)(F)F)ccc12 [Example 53] | 
6 |  | 16.2 | 760 | CS(=O)(=O)CCn1ncc2cc(-c3c(N)c4ccc(C(F)(F)F)nc4n(-c4ccc(Cl)cc4)c3=O)ccc21 [Example 52] | 
7 | 13 | 13.3 | 1220 | Cn1cc2cc(-c3c(N)c4ccc(C(F)(F)F)nc4n(-c4ccc(Cl)cc4)c3=O)ccc2n1 [Example 25] | 507
8 | 23.3 | 16.3 | 500 | Nc1c(-c2ccc3nnccc3c2)c(=O)n(-c2ccc(Cl)cc2)c2nc(C(F)(F)F)ccc12 [Example 55] | 
9 | 22.9 | 16.2 | 270 | Nc1c(-c2ccc3ncsc3c2)c(=O)n(-c2ccc(Cl)cc2)c2nc(C(F)(F)F)ccc12 [Example 21] | 507
10 |  | 16.2 | 960 | Nc1c(-c2ccc3c(c2)NC(=O)CO3)c(=O)n(-c2ccc(Cl)cc2)c2nc(C(F)(F)F)ccc12 [Example 54] | 
11 | 20.2 | 15.1 | 180 | Nc1c(-c2ccc3ncncc3c2)c(=O)n(-c2ccc(Cl)cc2)c2nc(C(F)(F)F)ccc12 [Example 46] | 251
12 | 20.9 | 15 | 730 | Nc1c(-c2ccc3ncoc3c2)c(=O)n(-c2ccc(Cl)cc2)c2nc(C(F)(F)F)ccc12 [Example 22] | 
13 |  | 18.1 | 910 | Nc1c(-n2cccn2)c(=O)n(-c2ccc(Cl)cc2)c2nc(C(F)(F)F)ccc12 [Example 38] | 
14 | 13.3 | 16.1 | 170 | COCCn1cc2cc(-c3c(N)c4ccc(C(F)(F)F)nc4n(-c4ccc(Cl)cc4)c3=O)ccc2n1 [Example 48] | 518
15 |  | 22 | 480 | Nc1ccc(-c2c(N)c3ccc(C(F)(F)F)nc3n(-c3ccc(Cl)cc3)c2=O)cc1 [Example 43] | 
16 | 345 | 23.2 | 9730 | CNc1c(-n2cccn2)c(=O)n(-c2ccccc2)c2nc(C(F)(F)F)ccc12 [Example 15, 4-(methylamino)-1-phenyl-3-(1H-pyrazol-1-yl)-7-(trifluoromethyl)-1,8-naphthyridin-2(1H)-one] | 
17 | 231 | 17.5 | 1620 | CNc1c(-c2ccc3ncn(C)c3c2)c(=O)n(-c2ccccc2)c2nc(C(F)(F)F)ccc12 [Example 27] | 
18 | 8.38 | 15 | 480 | Nc1c(-c2ccc(F)cc2)c(=O)n(-c2ccc(Cl)cc2)c2nc(C(F)(F)F)ccc12 [Example 42] | 
19 |  | 18.4 | 3080 | Nc1c(-n2cncn2)c(=O)n(-c2ccc(Cl)cc2)c2nc(C(F)(F)F)ccc12 [Example 41] | 
20 | 17.8 | 14.5 | 1110 | COc1cc(-c2c(N)c3ccc(C(F)(F)F)nc3n(-c3ccc(Cl)cc3)c2=O)ccn1 [Example 56] | 
21 | 16.3 | 18.1 | 750 | Nc1c(-c2ccc3nccnc3n2)c(=O)n(-c2ccc(Cl)cc2)c2nc(C(F)(F)F)ccc12 [Example 67] | 
22 |  | 19.8 | 410 | Nc1c(-c2ccncn2)c(=O)n(-c2ccc(Cl)cc2)c2nc(C(F)(F)F)ccc12 [Example 39] | 
23 | 22.3 | 13.4 | 550 | Nc1c(-c2ccco2)c(=O)n(-c2ccc(Cl)cc2)c2nc(C(F)(F)F)ccc12 [Example 30, 4-amino-1-(4-chlorophenyl)-3-(furan-2-yl)-7-(trifluoromethyl)-1,8-naphthyridin-2(1H)-one] | 
24 | 24.5 | 11.5 | 650 | COc1ccc(-c2c(N)c3ccc(C(F)(F)F)nc3n(-c3ccc(Cl)cc3)c2=O)cn1 [Example 20] | 48
25 | 13.1 | 12.3 | 890 | Nc1c(-c2ccc3c(c2)OCO3)c(=O)n(-c2ccc(Cl)cc2)c2nc(C(F)(F)F)ccc12 [Example 19] | 
26 | 13.1 | 15.5 |  | Cn1cnc2ccc(-c3c(N)c4ccc(C(F)(F)F)nc4n(-c4ccc(Br)cc4)c3=O)cc21 [Example 80] | 
27 | 11.5 | 15.6 | 100 | COc1ccc(-c2c(N)c3ccc(C(F)(F)F)nc3n(-c3ccc(Cl)cc3)c2=O)cc1 [Example 24] | 
28 | 21.5 | 17.8 |  | Cn1nnc2ccc(-c3c(N)c4ccc(C(F)(F)F)nc4n(-c4ccc(Cl)cc4)c3=O)cc21 [Example 63] | 
29 | 617 | 17.8 | 10200 | CNc1c(-c2ccc(F)cc2)c(=O)n(-c2ccccc2)c2nc(C(F)(F)F)ccc12 [Example 26] | 
30 | 23 | 16.5 | 610 | Cn1cnc2ccc(-c3c(N)c4ccc(C(F)(F)F)nc4n(-c4ccc(Cl)cc4)c3=O)cc21 [Example 23] | 

Row | Compound | IC50 (HCT116 MTAP-/- cells) [nM] | IC50 (MAT2a) [nM] | IC50 (KP-4 cells) [nM] | IC50 (DOHH-2 cells) [nM]
31 | Nc1c(-n2cccc2)c(=O)n(-c2ccc(Cl)cc2)c2nc(C(F)(F)F)ccc12 [Example 3, 4-amino-1-(4-chlorophenyl)-3-(1H-pyrrol-1-yl)-7-(trifluoromethyl)-1,8-naphthyridin-2(1H)-one] | 12.7 | 12.7 | 170 | 
